Here are results for 14 compounds from BindingDB's records for doi:10.1016/j.bioorg.2016.10.001 (Jamia Millia Islamia (A Central University), 2016).

For orientation: IC50 means the concentration needed to halve the response being measured. A higher IC50 goes with weaker potency.

DNA topoisomerase 2-alpha, sequence (P11388 whole entry): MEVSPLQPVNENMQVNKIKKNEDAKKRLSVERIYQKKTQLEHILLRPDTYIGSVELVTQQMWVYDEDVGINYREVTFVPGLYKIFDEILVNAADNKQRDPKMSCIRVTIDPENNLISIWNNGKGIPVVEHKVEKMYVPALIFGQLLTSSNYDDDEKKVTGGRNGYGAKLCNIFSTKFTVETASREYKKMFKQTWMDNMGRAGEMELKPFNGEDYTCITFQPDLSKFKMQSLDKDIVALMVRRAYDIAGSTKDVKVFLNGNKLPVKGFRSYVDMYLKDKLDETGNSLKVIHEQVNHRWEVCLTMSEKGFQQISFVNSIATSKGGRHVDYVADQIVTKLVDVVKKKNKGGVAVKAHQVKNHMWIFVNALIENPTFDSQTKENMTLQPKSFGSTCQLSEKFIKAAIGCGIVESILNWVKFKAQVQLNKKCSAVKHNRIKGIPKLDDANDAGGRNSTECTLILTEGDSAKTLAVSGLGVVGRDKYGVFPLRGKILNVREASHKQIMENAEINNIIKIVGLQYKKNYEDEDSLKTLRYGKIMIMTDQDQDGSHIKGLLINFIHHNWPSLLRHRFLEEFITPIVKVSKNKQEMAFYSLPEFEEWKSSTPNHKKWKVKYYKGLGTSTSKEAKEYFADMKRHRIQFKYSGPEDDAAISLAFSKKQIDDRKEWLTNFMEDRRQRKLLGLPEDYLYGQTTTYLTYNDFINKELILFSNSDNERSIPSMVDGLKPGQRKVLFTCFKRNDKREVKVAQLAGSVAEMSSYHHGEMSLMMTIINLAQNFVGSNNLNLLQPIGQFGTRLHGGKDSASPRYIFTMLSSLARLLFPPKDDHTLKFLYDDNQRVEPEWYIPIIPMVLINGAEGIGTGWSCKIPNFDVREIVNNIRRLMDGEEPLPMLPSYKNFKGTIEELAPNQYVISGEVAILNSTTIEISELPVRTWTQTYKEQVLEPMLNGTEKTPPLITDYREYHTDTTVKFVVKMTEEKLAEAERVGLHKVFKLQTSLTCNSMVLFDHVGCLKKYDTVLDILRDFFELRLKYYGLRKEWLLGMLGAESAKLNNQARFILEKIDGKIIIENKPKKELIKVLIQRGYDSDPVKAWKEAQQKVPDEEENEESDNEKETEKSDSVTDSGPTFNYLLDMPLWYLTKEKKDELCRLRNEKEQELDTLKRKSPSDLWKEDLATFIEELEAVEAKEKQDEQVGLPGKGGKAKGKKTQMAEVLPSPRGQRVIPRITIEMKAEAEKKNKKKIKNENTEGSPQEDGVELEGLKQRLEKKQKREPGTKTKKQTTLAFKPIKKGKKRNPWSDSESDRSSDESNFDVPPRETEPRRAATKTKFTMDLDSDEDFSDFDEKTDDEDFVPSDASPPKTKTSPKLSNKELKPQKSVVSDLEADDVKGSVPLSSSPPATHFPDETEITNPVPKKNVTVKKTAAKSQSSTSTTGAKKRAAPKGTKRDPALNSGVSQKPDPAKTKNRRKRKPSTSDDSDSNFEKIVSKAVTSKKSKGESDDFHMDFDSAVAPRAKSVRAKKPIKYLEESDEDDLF

The assay addresses DNA topoisomerase 2-alpha (Homo sapiens, UniProt P11388). Kind of assay: Topoisomerase IIα Relaxation Assay. To be noted: pH 7.9. As for the experimental part: Relaxation of negatively supercoiled plasmid DNA by human topoisomerase IIα was assayed in 20 µL of reaction buffer (10 mM Tris-HCl, pH 7.9, 150 mM NaCl, 0.1% BSA, 0.1 mM spermidine, 5% glycerol and ATP) containing 250 ng of supercoiledpHOT1 plasmid DNA and 1 unit of enzyme. After incubation at 37 °C for 30 min, the reactions were terminated and analysed by agarose gel electrophoresis. The ethidium bromide-stained gel was photographed over UV light for densitometry analysis.
In turn, `NC(=S)N1N=C(c2cccnc2)CC1c1cn(-c2ccccc2)nc1-c1cccc([N+](=O)[O-])c1` (centres undefined) [5-(3-(3-Nitrophenyl)-1-phenyl-1H-pyrazol-4-yl)-3-(pyridin-3-yl)-4,5-dihydropyrazole-1-carbothioamide (6f)] returned an IC50 of 445 µM.

For `CCOC(=O)C1C(=O)C=C(c2cn(-c3ccccc3)nc2-c2ccccc2)CC1c1cccnc1` (centres undefined) [Ethyl 4-(1,3-diphenyl-1H-Pyrazol-4-yl)-2-oxo-6-(pyridin-3-yl)cyclohex-3-enecarboxylate (5a)], the IC50 worked out at 222 µM.

`NC(=S)N1N=C(c2cccnc2)CC1c1cn(-c2ccccc2)nc1-c1ccccc1` (centres undefined) [5-(1,3-Diphenyl-1H-pyrazol-4-yl)-3-(pyridin-3-yl)-4,5-dihydropyrazole-1-carbothioamide (6a)] came in with an IC50 of 245 µM.

`CCOC(=O)C1C(=O)C=C(c2cn(-c3ccccc3)nc2-c2ccc(Cl)cc2)CC1c1cccnc1` (centres undefined) [Ethyl 4-(3-(4-chlorophenyl)-1-phenyl-1H-pyrazol-4-yl)-2-oxo-6-(pyridin-3-yl)cyclohex-3-enecarboxylate (5c)] showed a half-maximal inhibitory concentration (IC50) of less than 100 µM.

In turn, `NC(=S)N1N=C(c2cccnc2)CC1c1cn(-c2ccccc2)nc1-c1ccc(Cl)cc1` (centres undefined) [5-(3-(4-Chlorophenyl)-1-phenyl-1H-pyrazol-4-yl)-3-(pyridin-3-yl)-4,5-dihydropyrazole-1-carbothioamide (6c)] registered an IC50 of 406 µM.

In turn, `CCOC(=O)C1C(=O)C=C(c2cn(-c3ccccc3)nc2-c2ccc(C)cc2)CC1c1cccnc1` (centres undefined) [Ethyl 2-oxo-4-(1-phenyl-3-p-tolyl-1H-pyrazol-4-yl)-6-(pyridin-3-yl)cyclohex-3-enecarboxylate (5h)] came in with an IC50 of 395 µM.

Compound `NC(=S)N1N=C(c2cccnc2)CC1c1cn(-c2ccccc2)nc1-c1ccc(F)cc1` (centres undefined) [5-(3-(4-Fluorophenyl)-1-phenyl-1H-pyrazol-4-yl)-3-(pyridin-3-yl)-4,5-dihydropyrazole-1-carbothioamide (6b)] had a concentration for half-maximal inhibition (IC50) of 272 µM. This IC50 and that of the compound before are within 1.5-fold of each other.

With `NC(=S)N1N=C(c2cccnc2)CC1c1cn(-c2ccccc2)nc1-c1cccc(Br)c1` (centres undefined) [5-(3-(3-Bromophenyl)-1-phenyl-1H-pyrazol-4-yl)-3-(pyridin-3-yl)-4,5-dihydropyrazole-1-carbothioamide (6d)], half-maximal inhibition (IC50) was put at 457 µM.

Consider `CCOC(=O)C1C(=O)C=C(c2cn(-c3ccccc3)nc2-c2cccc(Br)c2)CC1c1cccnc1` (centres undefined) [Ethyl 4-(3-(3-bromophenyl)-1-phenyl-1H-pyrazol-4-yl)-2-oxo-6-(pyridin-3-yl)cyclohex-3-enecarboxylate (5d)], for which the IC50 was less than 100 µM.

Regarding `CCOC(=O)C1C(=O)C=C(c2cn(-c3ccccc3)nc2-c2ccc(OC)cc2)CC1c1cccnc1` (centres undefined) [Ethyl 4-(3-(4-methoxyphenyl)-1-phenyl-1H-pyrazol-4-yl)-2-oxo-6-(pyridin-3-yl)cyclohex-3-enecarboxylate (5i)], the IC50 stood at 428 µM.

`CCOC(=O)C1C(=O)C=C(c2cn(-c3ccccc3)nc2-c2cccc([N+](=O)[O-])c2)CC1c1cccnc1` (centres undefined) [Ethyl 4-(3-(3-nitrophenyl)-1-phenyl-1H-pyrazol-4-yl)-2-oxo-6-(pyridin-3-yl)cyclohex-3-enecarboxylate (5f)] registered an IC50 of less than 100 µM.

In turn, `CCOC(=O)C1C(=O)C=C(c2cn(-c3ccccc3)nc2-c2ccc([N+](=O)[O-])cc2)CC1c1cccnc1` (centres undefined) [Ethyl 4-(3-(4-nitrophenyl)-1-phenyl-1H-pyrazol-4-yl)-2-oxo-6-(pyridin-3-yl)cyclohex-3-enecarboxylate (5g)] yielded a 50% inhibitory concentration (IC50) of 256 µM.

Take `NC(=S)N1N=C(c2cccnc2)CC1c1cn(-c2ccccc2)nc1-c1ccc(Br)cc1` (centres undefined) [5-(3-(4-Bromophenyl)-1-phenyl-1H-pyrazol-4-yl)-3-(pyridin-3-yl)-4,5-dihydropyrazole-1-carbothioamide (6e)]: half-maximal inhibition (IC50) required 703 µM. Compared with the last compound, the IC50 is about 2.7-fold higher.

As to `CCOC(=O)C1C(=O)C=C(c2cn(-c3ccccc3)nc2-c2ccc(F)cc2)CC1c1cccnc1` (centres undefined) [Ethyl 4-(3-(4-fluorophenyl)-1-phenyl-1H-pyrazol-4-yl)-2-oxo-6-(pyridin-3-yl)cyclohex-3-enecarboxylate (5b)], the IC50 is less than 100 µM.
